Where two headings read alike, the source gives them in different places.
Columns and labels:
PDGFR = PDGFR (Homo sapiens, UniProt P09619); test: Biochemical PDGFR assay (ELISA); design: expressed in transfected cells; host or cells: NIH 3T3; settings: read-out: PDGFr biochem IC50
Experimental: This assay measures the in vitro kinase activity of PDGFR using ELISA.
6. PDGFR-β expressing NlH 3T3 cell lysate.
1. Coat Corning 96 well ELISA plates with 0.5 μg 28D4C10 in 100 μL PBS per well, store overnight at 4° C.
5. Dilute lysate in HNTG (10 μg lysate/100 μL HNTG)
6. Add 100 μL of diluted lysate to each well. Shake at room temperature for 60 min.
8. Add 80 μL working kinase buffer mix to ELISA plate containing captured PDGFR.
9. Dilute test compound 1:10 in TBS in 96-well polypropylene plates (i.e., 10 μL compound+90 μL TBS).
10. Add 10 μL diluted test compound to ELISA plate.
11. Incubate for 30 minutes while shaking at room temperature.
12. Add 10 μL ATP directly to all wells except negative control well (final well volume should be approximately 100 μL with 20 μM ATP in each well.) Incubate 30 minutes while shaking.
13. After 30 minutes, stop reaction by adding 10 μL of 200 mM EDTA (pH 8.0) to each well.
15. Add 100 μL anti-phosphotyrosine (1:3000 dilution in TBST) per well. Incubate 30-45 min. at room temperature, with shaking.
17. Add 100 μL Biosource Goat anti-rabbit IgG peroxidase conjugate (1:2000 dilution in TBST) to each well. Incubate 30 min. at room temperature, with shaking.
19. Add 100 μL of ABTS/H2O2 solution to each well.
22. Read assay on Dynatech MR7000 ELISA reader: test filter: 410 nM, reference filter: 630 nM.

EGFR [1] = target: T1, EGFR (Homo sapiens, UniProt P00533); test: EGF-induced BrdU incorporation assay; format: cell-based; design: expressed in transfected cells; host or cells: 3T3; settings: 3T3 cells expressing human EGF-R, EGF 2 nM, read-out: BrdU DNA syn. EGFr IC50
T1 sequence (P00533 25-1210): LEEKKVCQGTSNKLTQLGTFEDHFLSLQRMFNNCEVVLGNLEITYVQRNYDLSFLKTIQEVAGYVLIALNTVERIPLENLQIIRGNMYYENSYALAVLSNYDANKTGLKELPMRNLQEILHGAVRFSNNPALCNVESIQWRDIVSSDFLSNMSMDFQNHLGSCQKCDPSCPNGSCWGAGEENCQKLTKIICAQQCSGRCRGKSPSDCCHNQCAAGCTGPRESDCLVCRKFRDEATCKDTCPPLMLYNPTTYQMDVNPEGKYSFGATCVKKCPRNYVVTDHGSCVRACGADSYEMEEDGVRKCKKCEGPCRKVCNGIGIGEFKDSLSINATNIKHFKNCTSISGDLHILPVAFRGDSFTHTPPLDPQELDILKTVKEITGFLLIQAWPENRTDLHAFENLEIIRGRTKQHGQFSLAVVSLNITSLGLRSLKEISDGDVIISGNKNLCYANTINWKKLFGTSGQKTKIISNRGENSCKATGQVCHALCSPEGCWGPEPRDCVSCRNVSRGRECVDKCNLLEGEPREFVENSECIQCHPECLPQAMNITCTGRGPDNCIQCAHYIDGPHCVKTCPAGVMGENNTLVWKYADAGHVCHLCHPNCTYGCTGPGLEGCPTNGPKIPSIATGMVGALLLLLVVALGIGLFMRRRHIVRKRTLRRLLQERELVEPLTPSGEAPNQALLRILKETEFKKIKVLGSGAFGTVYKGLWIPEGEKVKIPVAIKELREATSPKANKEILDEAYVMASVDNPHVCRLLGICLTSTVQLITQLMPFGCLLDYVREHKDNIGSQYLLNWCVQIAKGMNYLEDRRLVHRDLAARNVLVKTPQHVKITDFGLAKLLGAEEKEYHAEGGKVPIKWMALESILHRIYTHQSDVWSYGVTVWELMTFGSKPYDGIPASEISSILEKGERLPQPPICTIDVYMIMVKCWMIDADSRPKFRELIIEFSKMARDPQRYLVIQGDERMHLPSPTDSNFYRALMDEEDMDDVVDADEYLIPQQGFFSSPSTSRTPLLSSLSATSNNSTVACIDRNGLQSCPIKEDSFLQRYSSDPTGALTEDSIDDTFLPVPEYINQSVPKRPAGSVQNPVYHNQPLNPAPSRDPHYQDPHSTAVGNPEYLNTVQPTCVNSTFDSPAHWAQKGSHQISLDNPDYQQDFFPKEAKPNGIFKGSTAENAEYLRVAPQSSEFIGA
Experimental: The cellular/biologic assays described herein measure the amount of DNA made in response to activation of a test kinase, which is a general measure of a proliferative response. The general procedure for this assay is as follows: a compound is introduced to cells expressing the test kinase, either naturally or recombinantly, for some period of time after which, if the test kinase is a receptor, a ligand known to activate the receptor is added. After incubation at least overnight, a DNA labeling reagent such as Bromodeoxy-uridine (BrdU) or 3H-thymidine is added. The amount of labeled DNA is detected with either an anti-BrdU antibody or by measuring radioactivity and is compared to control cells not contacted with a test compound.
EGF-Induced BrdU Incorporation Assay
(8) 3T3 cell line genetically engineered to express human EGF-R.
(1) Cells are seeded at 8000 cells/well in 10% CS, 2 mM Gin in DMEM, in a 96 well plate. Cells are incubated overnight at 37° C. in 5% CO2.
(2) After 24 hours, the cells are washed with PBS, and then are serum starved in serum free medium (0% CS DMEM with 0.1% BSA) for 24 hours.
(3) On day 3, ligand (EGF, 2 nM, prepared in DMEM with 0.1%/BSA) and test compounds are added to the cells simultaneously. The negative control wells receive serum free DMEM with 0.1% BSA only; the positive control cells receive the ligand (EGF) but no test compound. Test compounds are prepared in serum free DMEM with ligand in a 96 well plate, and serially diluted for 7 test concentrations.
(4) After 20 hours of ligand activation, diluted BrdU labeling reagent (1: 100 in DMEM, 0.1% BSA) is added and the cells are incubated with BrdU (final concentration=10 μM) for 1.5 hours.
(10) The absorbance of the samples are measured at 410 nm (in “dual wavelength” mode with a filter reading at 490 nm, as a reference wavelength) on a Dynatech ELISA plate reader.

EGFR [2] = target: T1, EGFR; test: Biochemical EGFR assay (ELISA); design: A431 cell lysate; endogenous in cells; host or cells: A431; settings: read-out: EGFr biochem IC50
In short: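 EGFR is captured from cell lysate onto SUMO1-coated plates and incubated with compound diluted in TBS. The kinase reaction is stopped after 5 min with EDTA. Substrate phosphotyrosine is detected with anti-phosphotyrosine and peroxidase-linked secondary antibody, then ABTS/H2O2 read at 410 nm (reference 630 nm).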

A431 = A431 growth; format: cell-based; settings: Homo sapiens, A-431, A431 cells
SKOV3 = SKOV3 growth; format: cell-based; settings: Homo sapiens, SK-OV-3, SKOV3 cells
[3] = Table 7, in vitro kinase activity
[4] = Table 5, in vitro kinase activity

Chain of PDGFR (P09619 33-1106): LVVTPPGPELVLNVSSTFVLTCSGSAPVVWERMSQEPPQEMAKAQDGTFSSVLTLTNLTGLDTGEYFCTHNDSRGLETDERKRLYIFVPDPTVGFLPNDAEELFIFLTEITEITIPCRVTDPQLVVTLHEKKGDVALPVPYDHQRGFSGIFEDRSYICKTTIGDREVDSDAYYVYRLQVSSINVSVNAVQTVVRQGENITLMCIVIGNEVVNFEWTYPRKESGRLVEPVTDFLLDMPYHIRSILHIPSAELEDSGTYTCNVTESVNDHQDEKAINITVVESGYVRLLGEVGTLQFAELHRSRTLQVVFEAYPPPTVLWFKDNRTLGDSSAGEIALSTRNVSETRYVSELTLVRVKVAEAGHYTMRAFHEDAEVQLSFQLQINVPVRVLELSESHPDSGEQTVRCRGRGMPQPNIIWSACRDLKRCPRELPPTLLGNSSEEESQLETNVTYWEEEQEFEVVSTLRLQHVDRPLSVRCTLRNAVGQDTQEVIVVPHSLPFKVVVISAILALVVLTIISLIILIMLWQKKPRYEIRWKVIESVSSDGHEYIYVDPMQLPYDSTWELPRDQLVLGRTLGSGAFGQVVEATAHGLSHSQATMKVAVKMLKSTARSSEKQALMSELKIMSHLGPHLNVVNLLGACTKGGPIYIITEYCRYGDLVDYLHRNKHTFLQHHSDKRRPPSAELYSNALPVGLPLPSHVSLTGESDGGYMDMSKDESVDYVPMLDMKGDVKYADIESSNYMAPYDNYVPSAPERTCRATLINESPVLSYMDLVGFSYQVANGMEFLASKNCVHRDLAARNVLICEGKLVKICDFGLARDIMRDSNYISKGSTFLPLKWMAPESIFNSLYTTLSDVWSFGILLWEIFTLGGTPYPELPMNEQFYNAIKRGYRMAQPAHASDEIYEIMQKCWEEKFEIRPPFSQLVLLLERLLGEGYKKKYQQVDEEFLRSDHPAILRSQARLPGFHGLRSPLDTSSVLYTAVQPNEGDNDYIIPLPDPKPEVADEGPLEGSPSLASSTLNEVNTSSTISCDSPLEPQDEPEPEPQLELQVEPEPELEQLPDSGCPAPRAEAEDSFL

Row | IC50 (PDGFR; [3]) | IC50 (EGFR [1]; Table 7) | IC50 (EGFR [2]; [3]) | IC50 (PDGFR; [4]) | IC50 (EGFR [1]; Table 5) | IC50 (A431; Table 5) | IC50 (SKOV3; Table 5) | IC50 (EGFR [2]; [4]) | IC50 (A431; Table 7) | IC50 (SKOV3; Table 7) | Structure (SMILES)
1 | > 100 µM | > 50 µM | > 100 µM | – | – | – | – | – | – | – | Cc1ccc(O)c(C=C2C(=O)Nc3cccc(CCO)c32)n1 (racemic) [IN-022, 4-(2-Hydroxy-ethyl)-3-(3-hydroxy-6-methyl-pyridin-2-ylmethylene)-1,3-dihydro-indol-2-one]
2 | – | – | – | > 100 µM | 30 µM | 5.26 µM | 17.9 µM | > 100 µM | – | – | COc1ccc(CC2C(=O)Nc3ccc(F)cc32)cc1C1CCCC1 (stereo not drawn) [AAI-5, 3-(3-Cyclopentyl-4-methoxybenzyl)-5-fluoro-1,3-dihydroindol-2-one]
3 | – | – | – | > 100 µM | > 50 µM | – | – | > 100 µM | – | – | COc1ccc(CC2C(=O)Nc3cc(NC(C)=O)ccc32)cc1-c1cccs1 (stereo not drawn) [AAI-6, N-[3-(4-Methoxy-3-thiophen-2-ylbenzyl)-2-oxo-2,3-dihydro-1H-indol-6-yl]-acetamide]
4 | – | – | – | > 100 µM | 28.1 µM | – | – | > 100 µM | – | – | CC(=O)Nc1ccc2c(c1)NC(=O)C2Cc1ccc(OCCN2CCOCC2)c(C2CCCCC2)c1 (stereo not drawn) [AAI-7, N-{3-[3-Cyclohexyl-4-(2-morpholin-4-ylethoxy)-benzyl]-2-oxo-2,3-dihydro-1H-indol-6-yl}-acetamide]
5 | – | – | – | > 100 µM | > 50 µM | – | – | > 100 µM | – | – | COc1ccc(CC2C(=O)Nc3ccc(CCN4CCOCC4)cc32)cc1-c1ccsc1 (stereo not drawn) [AAI-8, 3-(4-Methoxy-3-thiophen-3-ylbenzyl)-5-(2-morpholin-4-ylethyl)-1,3-dihydroindol-2-one]
6 | – | – | – | > 100 µM | > 50 µM | 17.7 µM | 17.3 µM | > 100 µM | – | – | COc1c(C(C)C)cc(CC2C(=O)Nc3ccccc32)cc1C(C)C (stereo not drawn) [AAI-10, 3-(3,5-Diisopropyl-4-methoxybenzyl)-1,3-dihydroindol-2-one]
7 | – | – | – | > 100 µM | > 50 µM | 29.6 µM | 21.8 µM | > 100 µM | – | – | O=C1Nc2ccc(F)cc2C1Cc1ccc(O)c(C2CCCC2)c1 (stereo not drawn) [AAI-11, 3-(3-Cyclopentyl-4-hydroxybenzyl)-5-fluoro-1,3-dihydroindol-2-one]
8 | – | – | – | > 100 µM | > 50 µM | > 50 µM | > 50 µM | > 100 µM | – | – | COc1cccc(-c2ccc3c(c2)NC(=O)C3Cc2ccccc2O)c1 (stereo not drawn) [AAI-13, 3-(2-Hydroxybenzyl)-6-(3-methoxyphenyl)-1,3-dihydroindol-2-one]
9 | – | – | – | > 100 µM | > 50 µM | – | – | > 100 µM | – | – | Cc1cccc2c1C(Cc1ccc3[nH]ccc3c1)C(=O)N2 (stereo not drawn) [AAI-16, 3-(1H-Indol-5-ylmethyl)-4-methyl-1,3-dihydroindol-2-one]
10 | – | – | – | > 100 µM | > 50 µM | – | – | > 100 µM | – | – | O=C1Nc2ccccc2C1Cc1ccc2[nH]ccc2c1 (stereo not drawn) [AAI-17, 3-(1H-Indol-5-ylmethyl)-1,3-dihydroindol-2-one]
11 | – | – | – | 0.56 µM | > 50 µM | > 50 µM | 43 µM | > 100 µM | – | – | Cc1[nH]c(CC2C(=O)Nc3ccccc32)c(C)c1CCCN(C)C (stereo not drawn) [AAI-18, 3-[4-(3-Dimethylaminopropyl)-3,5-dimethyl-1H-pyrrol-2-ylmethyl]-1,3-dihydroindol-2-one]
12 | – | – | – | 2.13 µM | 38.5 µM | 11.1 µM | 8.81 µM | > 100 µM | – | – | COc1ccccc1-c1ccc2c(c1)NC(=O)C2Cc1[nH]c(C)c(CCCN(C)C)c1C (stereo not drawn) [AAI-20, 3-[4-(3-Dimethylamino-propyl)-3,5-dimethyl-1H-pyrrol-2-ylmethyl]-6-(2-methoxy-phenyl)-1,3-dihydro-indol-2-one]
13 | – | – | – | 3.42 µM | 27.8 µM | – | – | 48.7 µM | – | – | COc1cccc(-c2ccc3c(c2)NC(=O)C3Cc2[nH]c(C)c(CCCN(C)C)c2C)c1 (stereo not drawn) [AAI-21, 3-[4-(3-Dimethylaminopropyl)-3,5-dimethyl-1H-pyrrol-2-ylmethyl]-6-(3-methoxyphenyl)-1,3-dihydroindol-2-one]
14 | – | – | – | 80 µM | 27.6 µM | 32.9 µM | > 50 µM | > 100 µM | – | – | COc1ccc(-c2ccc3c(c2)NC(=O)C3Cc2[nH]c(C)c(CCCN(C)C)c2C)cc1 (stereo not drawn) [AAI-22, 3-[4-(3-Dimethylaminopropyl)-3,5-dimethyl-1H-pyrrol-2-ylmethyl]-6-(4-methoxyphenyl)-1,3-dihydroindol-2-one]
15 | – | – | – | 0.81 µM | 32.2 µM | – | – | > 100 µM | – | – | Cc1[nH]c(CC2C(=O)Nc3ccc(Cl)cc32)c(C)c1CCCN(C)C (stereo not drawn) [AAI-23, 5-Chloro-3-[4-(3-dimethylaminopropyl)-3,5-dimethyl-1H-pyrrol-2-ylmethyl]-1,3-dihydroindol-2-one]
16 | – | – | – | > 100 µM | > 50 µM | – | – | > 100 µM | – | – | O=C1Nc2cc(-c3ccccc3)ccc2C1Cc1cccc(F)c1O (stereo not drawn) [AAI-24, 3-(3-Fluoro-2-hydroxybenzyl)-6-phenyl-1,3-dihydroindol-2-one]
17 | – | – | – | > 100 µM | > 50 µM | – | – | > 100 µM | – | – | COc1ccc(CC2C(=O)Nc3cc(-c4ccccc4)ccc32)c(O)c1 (stereo not drawn) [AAI-25, 3-(2-Hydroxy-4-methoxybenzyl)-6-phenyl-1,3-dihydroindol-2-one]
18 | – | – | – | > 100 µM | > 50 µM | – | – | > 100 µM | – | – | Cc1cccc(CC2C(=O)Nc3cccc(CCO)c32)n1 (stereo not drawn) [AAI-27, 4-(2-Hydroxyethyl)-3-(6-methylpyridin-2-ylmethyl)-1,3-dihydroindol-2-one]
19 | > 100 µM | 32.5 µM | > 100 µM | – | – | – | – | – | 12.3 µM | 27.8 µM | CC(C)c1cccc(OCCc2cccc3c2CC(=O)N3)c1 [IN-001, 4-[2-(3-Isopropyl-phenoxy)-ethyl]-1,3-dihydro-indol-2-one]
20 | > 100 µM | 41.5 µM | > 100 µM | – | – | – | – | – | 8.2 µM | 24.5 µM | CC(C)c1ccccc1OCCc1cccc2c1CC(=O)N2 [IN-002, 4-[2-(2-Isopropyl-phenoxy)-ethyl]-1,3-dihydro-indol-2-one]
21 | > 100 µM | 3 µM | > 100 µM | – | – | – | – | – | – | – | O=C1Nc2cccc(CCO)c2/C1=C/c1ccccn1 [IN-005, 4-(2-Hydroxy-ethyl)-3-pyridin-2-ylmethylene-1,3-dihydro-indol-2-one]
22 | 49.1 µM | 28.7 µM | > 100 µM | – | – | – | – | – | – | – | Cc1[nH]c(/C=C2\C(=O)Nc3cccc(CCOc4cccc(C(C)C)c4)c32)c(C)c1CCCN(C)C [IN-023]
23 | 97.5 µM | > 50 µM | > 100 µM | – | – | – | – | – | – | – | Cc1[nH]c(/C=C2\C(=O)Nc3cccc(CCOc4ccc(C(C)C)cc4)c32)c(C)c1CCC(=O)O [IN-024, 3-(5-{4-[2-(4-Isopropyl-phenoxy)-ethyl]-2-oxo-1,2-dihydro-indol-3-ylidenemethyl}-2,4-dimethyl-1H-pyrro-3-yl)-propionic acid]

From US6689806B1, “Indolinone compounds as kinase inhibitors” (Sugen, Inc., priority 1999, dated 2004)
